Activity calls are given as the source filed them. The rule behind the calls is not given here.
Legend:
KMS-28PE = experiment: Antiproliferative activity against human KMS-28-PE cells harboring KRAS G12A mutant at 0.1 to 10000 nM incubated for 72 hrs by MTS assay; type: functional, cell-based; conditions: dose 0.1-10000 nM
RPMI-8226 [1] = experiment: cells; conditions: Homo sapiens, RPMI-8226, 72 h
[2] = Hepatotoxicity in male NSG mouse xenografted with human RPMI-8226 cells assessed as foci of necrosis at 3 mg/kg, ip administered 3 times a week for 26 days and measured 48 hrs post last dose by H and E staining based assay; type: toxicity, organism-based; conditions: in vivo, 672 h, time 28 day
RPMI-8226 [3] = experiment: Antiproliferative activity against human RPMI-8226 cells harboring KRAS G12A mutant at 0.1 to 10000 nM incubated for 72 hrs by MTS assay; type: functional, cell-based; conditions: dose 0.1-10000 nM
[4] = Half life in Sprague-Dawley rat at 3 mg/kg, iv measured for 24 hrs by LC-MS/MS analysis; type: ADME, organism-based; conditions: in vivo
Cytochrome P450 3A4 = Cytochrome P450 3A4 (Homo sapiens, UniProt P08684); experiment: Inhibition of CYP3A4 (unknown origin); type: ADME
[5] = Hepatotoxicity in female NSG mouse xenografted with human RPMI-8226 cells assessed as single-cell necrosis at 3 mg/kg, ip administered 3 times a week for 26 days and measured 48 hrs post last dose by H and E staining based assay; type: toxicity, organism-based; conditions: in vivo, 672 h, time 28 day
HCT-116 [6] = experiment: Induction of apoptosis in human HCT-116 cells assessed as early apoptotic cells at 1 uM incubated for 72 hrs by APC-Annexin-V/7-AAD staining based flow cytometry (reference value: 1.16%); type: functional
[7] = Hepatotoxicity in male NSG mouse xenografted with human RPMI-8226 cells assessed as eosinophilic degeneration at 3 mg/kg, ip administered 3 times a week for 26 days and measured 48 hrs post last dose by H and E staining based assay; type: toxicity, organism-based; conditions: in vivo, 672 h, time 28 day
MIA PaCa-2 [8] = experiment: Induction of apoptosis in human MIA PaCa-2 cells assessed as early apoptotic cells at 1 uM incubated for 72 hrs by APC-Annexin-V/7-AAD staining based flow cytometry (reference value: 1.26%); type: functional
[9] = Toxicity in NSG mouse xenografted with human MIA PaCa-2 cells assessed as reduction in mobility at 3 mg/kg, ip administered 3 times a week for 26 days and measured daily; type: organism-based; conditions: in vivo, time 26 day
HCT-116 [10] = experiment: Induction of apoptosis in human HCT-116 cells assessed as live cells at 1 uM incubated for 72 hrs in presence of geranylgeraniol by APC-Annexin-V/7-AAD staining based flow cytometry (reference value: 95.3%); type: functional
[11] = Hepatotoxicity in male NSG mouse xenografted with human RPMI-8226 cells assessed as single-cell necrosis at 3 mg/kg, ip administered 3 times a week for 26 days and measured 48 hrs post last dose by H and E staining based assay; type: toxicity, organism-based; conditions: in vivo, 672 h, time 28 day
[12] = Hepatotoxicity in male NSG mouse xenografted with human RPMI-8226 cells assessed as vasculitis or perivasculitis at 3 mg/kg, ip administered 3 times a week for 26 days and measured 48 hrs post last dose by H and E staining based assay; type: toxicity, organism-based; conditions: in vivo, 672 h, time 28 day
[13] = Hepatotoxicity in male NSG mouse xenografted with human RPMI-8226 cells assessed as serum ALT level at 3 mg/kg, ip administered 3 times a week for 26 days and measured 48 hrs post last dose (reference value: 35 to 40 IU/L); type: toxicity, organism-based; conditions: in vivo, 672 h, time 28 day
MIA PaCa-2 [14] = experiment: Induction of apoptosis in human MIA PaCa-2 cells assessed as live cells at 1 uM incubated for 72 hrs by APC-Annexin-V/7-AAD staining based flow cytometry (reference value: 97.7%); type: functional
[15] = Hepatotoxicity in female NSG mouse xenografted with human RPMI-8226 cells assessed as inflammatory infiltrates at 3 mg/kg, ip administered 3 times a week for 26 days and measured 48 hrs post last dose by H and E staining based assay; type: toxicity, organism-based; conditions: in vivo, 672 h, time 28 day
[16] = AUC(0 to infinity) in Sprague-Dawley rat at 3 mg/kg, iv measured for 24 hrs by LC-MS/MS analysis; type: ADME, organism-based; parameters: dose 3 mg/kg, time 24 hrs, route iv; conditions: in vivo
Cytochrome P450 2C9 = Cytochrome P450 2C9 (Homo sapiens, UniProt P11712); experiment: Inhibition of CYP2C9 (unknown origin); type: ADME
KMS-12-PE = experiment: Antiproliferative activity against human KMS-12-PE cells harboring wild type KRAS at 0.1 to 10000 nM incubated for 72 hrs by MTS assay; type: functional, cell-based; conditions: dose 0.1-10000 nM
[17] = Toxicity in NSG mouse xenografted with human RPMI-8226 cells assessed as reduction in body weight at 3 mg/kg, ip administered 3 times a week for 26 days and measured daily; type: organism-based; conditions: in vivo, time 26 day
MIA PaCa-2 [18] = experiment: Induction of apoptosis in human MIA PaCa-2 cells at 1 uM incubated for 72 hrs by APC-Annexin-V/7-AAD staining based flow cytometry relative to control; type: functional
RPMI-8226 [19] = experiment: Antitumor activity against human RPMI-8226 cells xenografted in NSG mouse assessed as reduction in tumor volume at 3 mg/kg, ip administered 3 times a week for 26 days; type: functional, organism-based; conditions: time 26.0 day
HCT-116 [20] = experiment: Induction of apoptosis in human HCT-116 cells assessed as late apoptotic cells at 1 uM incubated for 72 hrs by APC-Annexin-V/7-AAD staining based flow cytometry (reference value: 0%); type: functional
[21] = Toxicity in NSG mouse xenografted with human MIA PaCa-2 cells assessed as appearance of skin lesions at 3 mg/kg, ip administered 3 times a week for 26 days and measured daily; type: organism-based; conditions: in vivo, time 26 day
Mus musculus = species on record: Mus musculus; experiment: Cytotoxicity against KPC mouse pancreatic cancer organoid ccmT4 at 1 uM incubated for 72 hrs by CellTiter-Glo luminescence based analysis; type: functional, tissue-based
[22] = Hepatotoxicity in male NSG mouse xenografted with human RPMI-8226 cells assessed as inflammatory infiltrates at 3 mg/kg, ip administered 3 times a week for 26 days and measured 48 hrs post last dose by H and E staining based assay; type: toxicity, organism-based; conditions: in vivo, 672 h, time 28 day
HCT-116 [23] = experiment: Induction of apoptosis in human HCT-116 cells assessed as live cells at 1 uM incubated for 72 hrs by APC-Annexin-V/7-AAD staining based flow cytometry (reference value: 95.3%); type: functional
[24] = Metabolic stability in Sprague-Dawley rat liver microsomes assessed as compound remaining incubated for 45 mins in presence of NADPH by LC-MS/MS analysis; type: ADME, Microsome; conditions: 0.75 h
[25] = Metabolic stability in Sprague-Dawley rat liver microsomes assessed as compound remaining incubated for 45 mins in absence of NADPH by LC-MS/MS analysis; type: ADME, Microsome; conditions: 0.75 h
[26] = biological target: T1, Ras-related protein Rap-1A (Homo sapiens) (UniProt P62834); experiment: Inhibition of RAP-1A prenylation in human MIA PaCa-2 cells incubated for 48 hrs by Western blot analysis; type: cell-based; conditions: dose 10-1000 nM
T1 sequence (whole entry): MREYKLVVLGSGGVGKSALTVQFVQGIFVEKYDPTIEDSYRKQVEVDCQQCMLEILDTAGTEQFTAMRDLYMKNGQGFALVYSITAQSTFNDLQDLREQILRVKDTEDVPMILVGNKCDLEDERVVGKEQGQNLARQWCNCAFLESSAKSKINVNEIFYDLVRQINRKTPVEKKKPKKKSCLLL

[27] = Toxicity in NSG mouse xenografted with human MIA PaCa-2 cells assessed as body weight gain at 3 mg/kg, ip administered 3 times a week for 26 days and measured daily; type: organism-based; conditions: in vivo, time 26 day

Cytochrome P450 2C9, sequence (P11712 whole entry): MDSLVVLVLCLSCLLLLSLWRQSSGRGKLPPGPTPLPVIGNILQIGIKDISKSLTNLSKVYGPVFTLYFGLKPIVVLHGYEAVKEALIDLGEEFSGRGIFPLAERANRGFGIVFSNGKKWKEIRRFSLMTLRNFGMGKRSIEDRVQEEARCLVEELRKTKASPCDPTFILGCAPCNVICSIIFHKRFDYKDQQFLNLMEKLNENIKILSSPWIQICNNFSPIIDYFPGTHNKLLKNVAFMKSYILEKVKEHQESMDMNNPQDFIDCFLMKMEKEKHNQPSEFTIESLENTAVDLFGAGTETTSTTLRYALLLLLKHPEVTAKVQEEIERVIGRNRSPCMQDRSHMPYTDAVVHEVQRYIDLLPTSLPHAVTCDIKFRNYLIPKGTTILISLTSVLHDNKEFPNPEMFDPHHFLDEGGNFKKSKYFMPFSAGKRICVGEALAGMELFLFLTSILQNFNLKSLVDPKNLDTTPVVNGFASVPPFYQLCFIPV
Cytochrome P450 3A4, sequence (P08684 whole entry): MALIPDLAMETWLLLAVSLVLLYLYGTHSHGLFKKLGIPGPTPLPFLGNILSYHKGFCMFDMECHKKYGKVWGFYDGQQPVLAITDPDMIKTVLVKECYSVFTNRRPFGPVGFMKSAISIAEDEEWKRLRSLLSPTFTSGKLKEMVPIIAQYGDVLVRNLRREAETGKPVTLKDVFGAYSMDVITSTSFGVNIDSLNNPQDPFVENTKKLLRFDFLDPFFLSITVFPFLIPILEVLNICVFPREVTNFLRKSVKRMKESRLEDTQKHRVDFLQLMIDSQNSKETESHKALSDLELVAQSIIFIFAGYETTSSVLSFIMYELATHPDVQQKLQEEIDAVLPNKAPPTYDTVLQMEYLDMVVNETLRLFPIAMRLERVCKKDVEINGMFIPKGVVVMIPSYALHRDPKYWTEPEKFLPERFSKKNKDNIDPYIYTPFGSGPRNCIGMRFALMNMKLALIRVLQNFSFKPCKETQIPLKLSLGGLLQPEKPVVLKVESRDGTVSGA

EC50 (RPMI-8226 [1]): 0.07 µM
half-life [4]: 3.84 h
IC50 (Cytochrome P450 3A4): > 40 µM
AUC(0-inf) [16]: 156 µg·h/mL
IC50 (Cytochrome P450 2C9): > 40 µM
Stability [24]: 89.7%
Stability [25]: 99.3%
inhibition [26]: Dose-Dependent Effect
Compound: Cn1ncc2c(NC(P(=O)(O)O)P(=O)(O)O)nc(-c3cccc(C(=O)Nc4ccc(C(F)(F)F)cc4)c3)nc21
Activity (KMS-28PE): Active
Activity [2]: Non-Toxic
Activity (RPMI-8226 [3]): Active
Activity [5]: Non-Toxic
Activity (HCT-116 [6]): 20.7%
Activity [7]: Non-Toxic
Activity (MIA PaCa-2 [8]): 13.5%
Activity [9]: Non-Toxic
Activity (HCT-116 [10]): 93.2%
Activity [11]: Non-Toxic
Activity [12]: Non-Toxic
Activity [13]: 42 IU/L
Activity (MIA PaCa-2 [14]): 32.1%
Activity [15]: Non-Toxic
Activity (KMS-12-PE): Active
Activity [17]: Non-Toxic
Activity (MIA PaCa-2 [18]): ~50%
Activity (RPMI-8226 [19]): Active
Activity (HCT-116 [20]): 18%
Activity [21]: Non-Toxic
Activity (Mus musculus): Active
Activity [22]: Non-Toxic
Activity (HCT-116 [23]): 56.6%
Activity [27]: Toxic
